Reference: US20200123271A1, “COMPOSITION FOR ENHANCING SENSITIVITY OF PROSTATE CANCER TO ANTICANCER DRUG AND USE THEREOF” (KOREA INSTITUTE OF SCIENCE AND TECHNOLOGY, priority 2018, published 2020)

Legend:
Type in all cases: cell-based
caspase 3/7 = assay: Expression of caspase 3/7 (luminescence assay)
Description: NCI-H660 and LNCaP cells were seeded on black transparent bottom 96-well plates at a density of 10^4 cells/well. After 24 hours, the cells were treated with CRISPR ERG, crisprTMPRSS2-ERG, and 30 μM casodex, respectively, for 48 hours. 50 μL of a caspase 3/7 assay buffer (Promega, USA) was added thereto, followed by incubation at room temperature for 1 hour. Then, the activity of caspase 3/7 was detected by measuring luminescence.

[1] = tested on: alpha tubulin, beta3 tubulin; assay: Activity of tubulin protein (Western blotting); conditions: LNCaP cells, knock-out (FIG. 4)
Description: NCI-H660 and LNCaP cell lines were seeded on 6-well plates at a density of 2×10^5 cells/well. After 24 hours, the cells were treated with CRISPR ERG, CRISPR TMPRSS2-ERG, and 30 μM casodex, respectively, for 48 hours. The cells were lysed using Pro-prep protein extraction solution (Intron Biotechnology, South Korea). Cell lysates were quantified using a BCA protein assay kit (Thermo Fisher Scientific, USA).
Then, the expression of proteins was identified by Western blotting. Specifically, SDS 5× loading buffer was added to protein samples diluted to 10-20 μg and heated for 5 minutes. The samples were placed in 4-20% Mini-protean TGX gel (Biorad, USA) and run at 120 V for 60 minutes. Then, the gel was transferred to a nitrocellulose membrane at 300 mA for 90 minutes. The membrane was blocked by 3% BSA in PBS and incubated overnight with a primary antibody in PBS containing 1% BSA at 4° C. The membrane was washed three times with PBS containing with 0.01% Tween 20. A secondary antibody was cultured in a PBS containing 1% BSA for 1 hour at room temperature. The membrane was washed three times with PBS containing 0.01% Tween 20. Then, the membrane was visualized with LAS-3000 (Fujifilm, Japan).

pgp = assay: Expression of Pgp (pgp-glo assay, ATP level by luminescence)
Description: NCI-H660 and LNCaP cells were seeded on white transparent bottom 96-well plates at a density of 10^4 cells/well. After 24 hours, the cells were treated with CRISPR ERG, crisprTMPRSS2-ERG, and 30 μM casodex, respectively, for 48 hours. 20 μL of a pgp-glo assay buffer (Promega, USA) was added to all wells except for Na3VO4 condition. 20 μL of 0.25 mM Na3VO4 was added to the Na3VO4 condition. Reaction was initiated by adding 10 μL of 25 mM MgATP. The plates were mixed for a while and then incubated at 37° C. for 40 minutes. The 40 μL of an ATP detection reagent was added to all wells. Then, the plates were incubated at room temperature for 20 minutes and luminescence was measured.

NCI-H660 cells = assay: Cell viability, CellTiter 96 aqueous one solution cell proliferation assay
Description: (§1) NCI-H660 and LNCaP cells were seeded on transparent 96-well plates at a density of 10^4 cells/well. […] 10 μL of a CellTiter 96 aqueous one solution cell proliferation assay buffer (Promega, USA) was added thereto, followed by incubation at 37° C. for 1 hour. Then, cell viability was evaluated by measuring absorbance at […].
(§2) NCI-H660 and LNCaP cells were seeded on transparent 96-well plates at a density of 10^4 cells/well. After 24 hours, the cells were treated with CRISPR ERG, CRISPR TMPRSS2-ERG, and 30 μM casodex, respectively, for 48 hours. 10 μL of a CellTiter 96 aqueous one solution cell proliferation assay buffer (Promega, USA) was added thereto, followed by incubation at 37° C. for 1 hour. Then, cell viability was evaluated by measuring absorbance at […].

LNCaP cells = assay: as above
Description: as §1, §2

TMPRSS2-ERG gene = assay: Expression of TMPRSS2-ERG gene by RNA extraction, cDNA synthesis and PCR; conditions: CRISPR treated in combination with 30 μM casodex, 48 hours (FIG. 2C)
Description: To identify whether the ERG gene of the cell line prepared in Example 2 was knocked out, expression of the gene was identified by extracting RNA and synthesizing cDNA.
NCI-H660 and LNCaP cell lines were seeded on 6-well plates at a density of 2×10^5 cells/well. After 24 hours, the cells were treated with CRISPR ERG, CRISPR TMPRSS2-ERG, and 30 μM casodex, respectively, for 48 hours. 1 mL of Trizol was added thereto to lyse the cells and the samples were homogenized by voltexing. 100 μL of chloroform was added thereto to separate RNA included in a transparent upper aqueous layer from proteins included in a lower organic layer. The solution was vigorously shaken and incubated at room temperature for 3 minutes. The resultant was centrifuged at 4° C. for 15 minutes at 13,000 rpm to obtain a clean aqueous layer including total RNA. Subsequently, the supernatant of the sample was transferred to a new tube and […] of isopropanol was added to each sample to precipitate RNA. The sample was incubated at room temperature for 10 minutes, and then centrifuged at 13,000 rpm at 4° C. for 15 minutes to obtain pellets of total RNA. Then, the supernatant was decanted and RNA was washed with 1 mL of 75% ethanol. […] RNA was resuspended in RNase-free water and absorbance of RNA was measured at 260 nm to determine a concentration of RNA. […]

[2] = LNCaP cells, knock-out in combination with 30 μM casodex (FIG. 3C)
[3] = normal and resistant LNCaP cells, knock-out alone (FIG. 3C)

Compound | expression of caspase 3/7 (caspase 3/7; cell line treated with CRISPR TMPRSS2-ERG alone, 48 hours (FIG. 2D)) | amount of polymeric alpha tubulin [1] | amount of water-soluble alpha tubulin [1] | beta3 tubulin [1] | ATP level (pgp; [2]) | ATP level (pgp; [3]) | cell viability (NCI-H660 cells; 30 μM casodex in combination with CRISPR TMPRSS2-ERG, 48 hours, compared with CRISPR TMPRSS2-ERG alone (FIG. 2B)) | cell viability (NCI-H660 cells; casodex concentration in the range of 100 μM to 200 μM (FIG. 2B)) | cell viability (LNCaP cells; 30 μM casodex in combination with CRISPR TMPRSS2-ERG, 48 hours, compared with CRISPR TMPRSS2-ERG alone (FIG. 2A)) | cell viability (LNCaP cells; casodex concentration in the range of 100 μM to 200 μM (FIG. 2A)) | expression level of TMPRSS2-ERG gene (TMPRSS2-ERG gene; LNCaP cell line) | expression level of TMPRSS2-ERG gene (TMPRSS2-ERG gene; NCI-H660 cell line) | expression of caspase 3/7 (caspase 3/7; 30 μM casodex in combination with CRISPR TMPRSS2-ERG, 48 hours, compared with CRISPR TMPRSS2-ERG alone (FIG. 2D))
CRISPR TMPRSS2-ERG: CRISPR sgRNA for TMPRSS2-ERG, 5′AAGGCTTCCTGCCGCGCTCCAGG 3′, delivered with Cas9 nuclease to knock out TMPRSS2-ERG (listed as DNA, chemistry not given here; the letters are possibly those of the target site) | significantly increased | decreased | increased | no significant difference | significantly increased | significantly increased |  |  |  |  |  |  | 
CRISPR ERG: CRISPR sgRNA for ERG, 5′TGCCTACGGAACGCCACACCTGG 3′, delivered with Cas9 nuclease to knock out ERG (listed as DNA, chemistry not given here; the letters are possibly those of the target site) |  | decreased | increased | no significant difference | significantly increased | significantly increased |  |  |  |  |  |  | 
CC(O)(CS(=O)(=O)c1ccc(F)cc1)C(=O)Nc1ccc(C#N)c(C(F)(F)F)c1 (stereo not drawn) [casodex] |  |  |  |  |  |  | significantly reduced | significantly reduced | significantly reduced | significantly reduced | significantly reduced | significantly reduced | more significantly increased
